Results from patent publication US12336981B2, “Compounds and compositions for the inhibition of NAMPT” (Valo Health, Inc., priority 2010, dated 2025).
pIC50: −log10 of the molar value. Like-named read-outs stand apart in the source and are kept apart here.

Experiments:
A2780 cells = test: In-vitro cell proliferation assay (SRB), A2780 cells; format: cell-based; conditions: Homo sapiens, A2780, 72 h, A2780 cells, 72 hours, read-out: A2780 IC50
Method in brief: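 Cells were plated overnight at 37° C., 5% CO2, then exposed to serially diluted compounds (0.1% DMSO final) for 72 hours. Viable cells were measured by sulforhodamine B staining after TCA fixation, read at 570 nm; media-only background was subtracted before % inhibition was calculated.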

NAMPT = target: T1, NAMPT (Homo sapiens, UniProt P43490); test: Biochemical inhibition assay: NAMPT enzymatic reaction, NMN quantified by mass spectrometry; conditions: read-out: Biochem IC50
T1 construct: His tag; host or cells: E. coli
Method in brief: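 Inhibition of E. coli-expressed His-tagged human NAMPT, measured as NMN formation by mass spectrometry after a 30 min room-temperature reaction containing 1 μM NAM, 100 μM PRPP and 2.5 mM ATP.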

T1 sequence (P43490 whole entry): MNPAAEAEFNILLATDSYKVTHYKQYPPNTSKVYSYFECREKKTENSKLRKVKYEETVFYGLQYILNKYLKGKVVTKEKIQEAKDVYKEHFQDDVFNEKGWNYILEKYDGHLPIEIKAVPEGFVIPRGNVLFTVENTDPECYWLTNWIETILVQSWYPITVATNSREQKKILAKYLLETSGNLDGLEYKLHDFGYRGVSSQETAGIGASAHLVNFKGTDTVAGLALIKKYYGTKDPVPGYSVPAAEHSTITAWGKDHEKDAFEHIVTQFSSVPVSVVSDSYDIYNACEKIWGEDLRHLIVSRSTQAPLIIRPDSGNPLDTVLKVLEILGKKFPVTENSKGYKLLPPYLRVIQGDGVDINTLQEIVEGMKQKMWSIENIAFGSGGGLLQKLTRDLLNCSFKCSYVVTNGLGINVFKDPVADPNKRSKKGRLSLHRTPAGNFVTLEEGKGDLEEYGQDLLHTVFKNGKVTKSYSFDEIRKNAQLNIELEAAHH

Structure (SMILES)	pIC50 (A2780 cells; SRB)	pIC50 (NAMPT; NAMPT enzymatic assay)	pIC50 (A2780 cells; SRB assay)	pIC50 (NAMPT; NAMPT enzymatic reaction)
O=C(NCc1ccc(S(=O)(=O)c2cc(Cl)cc(C(F)(F)F)c2)cc1)c1cc2cnccc2[nH]1 [N-[(4-{[3-chloro-5-(trifluoromethyl)benzene]sulfonyl}phenyl)methyl]-1H-pyrrolo[3,2-c]pyridine-2-carboxamide]	8.57	7.70		
COc1ccc(Cl)cc1NS(=O)(=O)c1ccc(CNC(=O)c2cc3cnccc3[nH]2)cc1 [N-({4-[(5-chloro-2-methoxyphenyl)sulfamoyl]phenyl}methyl)-1H-pyrrolo[3,2-c]pyridine-2-carboxamide]			4.75	6.71
COc1ccc(F)cc1S(=O)(=O)c1ccc(CNC(=O)c2cc3ccncc3o2)cc1	7.91			8.66
CCOc1ccc(Cl)cc1S(=O)(=O)c1ccc(CNC(=O)c2ccc3nccn3c2)cc1	9.30			8.66
O=C(NCc1ccc(S(=O)(=O)c2cccc(F)c2F)cc1)c1cnc2[nH]ncc2c1	6.56			7.09
CC(C)COc1cccc(S(=O)(=O)c2ccc(CNC(=O)c3cnc4[nH]ncc4c3)cc2)c1	7.47	7.55		
O=C(NCc1ccc(S(=O)(=O)c2ccccc2)cc1)c1noc(-c2cccnc2)n1 [N-{[4-(benzenesulfonyl)phenyl]methyl}-5-(pyridin-3-yl)-1,2,4-oxadiazole-3-carboxamide]			< 4.52	6.51
CC(C)Oc1cc(F)ccc1S(=O)(=O)c1ccc(CNC(=O)c2cnc3nccn3c2)cc1 [N-[(4-{[4-fluoro-2-(propan-2-yloxy)benzene]sulfonyl}phenyl)methyl]imidazo[1,2-a]pyrimidine-6-carboxamide]	7.82	8.46		
Cc1cccc(S(=O)(=O)c2ccc(CNC(=O)c3cc4ccncc4o3)cc2)c1F [N-({4-[(2-fluoro-3-methylbenzene)sulfonyl]phenyl}methyl)furo[2,3-c]pyridine-2-carboxamide]	8.10			8.20
CCCOc1cccc(F)c1S(=O)(=O)c1ccc(CNC(=O)c2cc3ccncc3s2)cc1	7.53			7.94
CSc1ccc(S(=O)(=O)c2ccc(CNC(=O)c3ccc4nccn4c3)cc2)cc1F	8.57	8.25		
O=C(NCc1ccc(S(=O)(=O)c2ccccc2)cc1)N1CCc2nocc2C1 [N-{[4-(benzenesulfonyl)phenyl]methyl}-4H,5H,6H,7H-[1,2]oxazolo[4,3-c]pyridine-5-carboxamide]			< 5.70	< 5.70
O=C(NCc1ccc(S(=O)(=O)c2cc(F)cc(F)c2)cc1)c1cnc2nccn2c1	8.52			8.70
Cc1ccc(Cl)c(S(=O)(=O)c2ccc(CNC(=O)c3ccc4nccn4c3)cc2)c1	8.34			8.25
COc1ccc(C(C)(C)C)cc1S(=O)(=O)c1ccc(CNC(=O)c2cnc3nccn3c2)cc1	8.11	8.01		
O=C(NCc1ccc(S(=O)(=O)c2cccc(N3CCCC3)c2)cc1)c1cc2ccncc2o1	8.13	8.09		
O=C(NCc1ccc(S(=O)(=O)c2cccc(Cl)c2)cc1)c1cc2ncccc2[nH]1	7.89			8.41
CCc1cccc(S(=O)(=O)c2ccc(CNC(=O)c3cnc4nccn4c3)cc2)c1	8.39			8.42
N#Cc1cccc(S(=O)(=O)c2ccc(CNC(=O)c3cc4cnccc4[nH]3)cc2)c1	7.95			7.92
COc1cccc(S(=O)(=O)c2ccc(CNC(=O)c3ccc4nccn4c3)cc2)c1F [N-({4-[(2-fluoro-3-methoxybenzene)sulfonyl]phenyl}methyl)imidazo[1,2-a]pyridine-6-carboxamide]	7.87			7.48
O=C(NCc1ccc(S(=O)(=O)c2cc(F)ccc2F)cc1)c1cnc2[nH]ncc2c1	6.41			6.00 to 7.00
COc1cccc(F)c1S(=O)(=O)c1ccc(CNC(=O)c2ccc3nccn3c2)cc1 [N-({4-[(2-fluoro-6-methoxybenzene)sulfonyl]phenyl}methyl)imidazo[1,2-a]pyridine-6-carboxamide]	7.58			7.32
COc1ccc(S(=O)(=O)c2ccc(CNC(=O)c3cc4cnccc4[nH]3)cc2)c(C)c1 [N-({4-[(4-methoxy-2-methylbenzene)sulfonyl]phenyl}methyl)-1H-pyrrolo[3,2-c]pyridine-2-carboxamide]			7.62	7.62
CCOc1ccccc1S(=O)(=O)c1ccc(CNC(=O)c2cnc3[nH]ncc3c2)cc1	7.57			7.31
CC(C)CNC(=O)c1cccc(S(=O)(=O)c2ccc(CNC(=O)c3cc4ccncc4s3)cc2)c1 [N-{[4-({3-[(2-methylpropyl)carbamoyl]benzene}sulfonyl)phenyl]methyl}thieno[2,3-c]pyridine-2-carboxamide]	7.84	8.28		

Structure (SMILES)	pIC50 (A2780 cells; SRB)	pIC50 (NAMPT; NAMPT enzymatic assay)	pIC50 (A2780 cells; SRB assay)	pIC50 (NAMPT; NAMPT enzymatic reaction)
O=C(NCc1ccc(S(=O)(=O)c2ccccc2Oc2ccccc2)cc1)c1cc2ccncc2s1 [N-({4-[(2-phenoxybenzene)sulfonyl]phenyl}methyl)thieno[2,3-c]pyridine-2-carboxamide]			7.16	7.96
CC(=O)c1ccc(S(=O)(=O)c2ccc(CNC(=O)c3cnc4[nH]ncc4c3)cc2)cc1	8.43			7.54
O=C(NCc1ccc(S(=O)(=O)c2cccc3c2oc2ccccc23)cc1)c1cc2ccncc2o1	7.89	7.91		
O=C(NCc1ccc(S(=O)(=O)c2cc(F)ccc2Cl)cc1)c1cc2ccncc2o1	7.61			7.79
CC(C)COc1cc(F)cc(S(=O)(=O)c2ccc(CNC(=O)c3cc4ccncc4o3)cc2)c1 [N-[(4-{[3-fluoro-5-(2-methylpropoxy)benzene]sulfonyl}phenyl)methyl]furo[2,3-c]pyridine-2-carboxamide]	7.89	7.99		
CCCOc1cccc(S(=O)(=O)c2ccc(CNC(=O)c3cc4ccncc4s3)cc2)c1	7.91			8.40
CCCCOc1cccc(S(=O)(=O)c2ccc(CNC(=O)c3cc4ccncc4s3)cc2)c1	7.41			8.48
COc1ccc(Cl)cc1S(=O)(=O)c1ccc(CNC(=O)c2cnc3[nH]ncc3c2)cc1	8.09			7.31
COc1cc(OC)cc(S(=O)(=O)c2ccc(CNC(=O)c3cc4ccncc4o3)cc2)c1	8.77			8.57
CCCOc1ccc(Cl)cc1S(=O)(=O)c1ccc(CNC(=O)c2cc3ccncc3s2)cc1	8.92			8.24
O=C(NCc1ccc(S(=O)(=O)c2ccc(CO)cc2)cc1)c1ccc2nccn2c1	7.89	7.85		
CCc1ccccc1S(=O)(=O)c1ccc(CNC(=O)c2cc3cnccc3[nH]2)cc1 [N-({4-[(2-ethylbenzene)sulfonyl]phenyl}methyl)-1H-pyrrolo[3,2-c]pyridine-2-carboxamide]			8.52	8.30
CCCCc1ccc(S(=O)(=O)c2ccc(CNC(=O)c3cnc4nccn4c3)cc2)cc1	7.97			8.28
COc1cccc(S(=O)(=O)c2ccc(CNC(=O)c3cc4ccncc4s3)cc2)c1 [N-({4-[(3-methoxybenzene)sulfonyl]phenyl}methyl)thieno[2,3-c]pyridine-2-carboxamide]			8.59	8.30
CC(C)Oc1cc(F)ccc1S(=O)(=O)c1ccc(CNC(=O)c2cc3ccncc3s2)cc1	8.80	8.30		
O=C(NCc1ccc(S(=O)(=O)c2ccccc2)cc1)c1cnc2nccn2c1 [N-{[4-(benzenesulfonyl)phenyl]methyl}imidazo[1,2-a]pyrimidine-6-carboxamide]	7.24	8.70		
O=C(NCc1ccc(S(=O)(=O)c2ccc(C(F)(F)F)cc2C(F)(F)F)cc1)c1cc2ccncc2s1 [N-[(4-{[2,4-bis(trifluoromethyl)benzene]sulfonyl}phenyl)methyl]thieno[2,3-c]pyridine-2-carboxamide]	8.37	7.67		
O=C(NCc1ccc(S(=O)(=O)c2cnc3ccccc3c2)cc1)c1cc2ccncc2s1 [N-{[4-(quinoline-3-sulfonyl)phenyl]methyl}thieno[2,3-c]pyridine-2-carboxamide]	9.05	8.36	9.10	8.52
Cc1cc(S(=O)(=O)c2ccc(CNC(=O)c3cc4ccncc4s3)cc2)c(C)cc1F [N-({4-[(4-fluoro-2,5-dimethylbenzene)sulfonyl]phenyl}methyl)thieno[2,3-c]pyridine-2-carboxamide]	7.87			8.38
O=C(NCc1ccc(S(=O)(=O)c2cc(OC(F)(F)F)ccc2Cl)cc1)c1cc2cnccc2[nH]1 [N-[(4-{[2-chloro-5-(trifluoromethoxy)benzene]sulfonyl}phenyl)methyl]-1H-pyrrolo[3,2-c]pyridine-2-carboxamide]	7.92	7.27		
Cc1cc(S(=O)(=O)c2ccc(CNC(=O)c3cc4cnccc4[nH]3)cc2)ccc1F [N-({4-[(4-fluoro-3-methylbenzene)sulfonyl]phenyl}methyl)-1H-pyrrolo[3,2-c]pyridine-2-carboxamide]			8.15	8.05
CN(C)CCc1cccc(S(=O)(=O)c2ccc(CNC(=O)c3cc4ccncc4s3)cc2)c1	8.80	8.60		
O=C(NCc1ccc(S(=O)(=O)c2ccc(-c3ccccc3)cc2)cc1)c1cc2cnccc2[nH]1 [N-({4-[(4-phenylbenzene)sulfonyl]phenyl}methyl)-1H-pyrrolo[3,2-c]pyridine-2-carboxamide]	7.88			7.51
O=C(NCc1ccc(S(=O)(=O)c2ccccc2C(F)(F)F)cc1)c1ccc2nccn2c1 [N-[(4-{[2-(trifluoromethyl)benzene]sulfonyl}phenyl)methyl]imidazo[1,2-a]pyridine-6-carboxamide]	7.24	7.47		
